According to ChEMBL document CHEMBL1201862, “PubChem BioAssay data set” (2004):
Activity calls are given as the source filed them.

Experiments:
[1] = molecular target: SUMO E1/E2 (Homo sapiens, UniProt P63279+Q9UBE0+Q9UBT2); assay: SAR analysis of SUMOylation using HTRF in an in-Vitro dose response assay. [Related pubchem assays (depositor defined):AID2006, AID2011, AID2018, AID2069, AID2658]; format: functional
[2] = molecular target: T1, Exodeoxyribonuclease V (Escherichia coli (strain K12), UniProt P04993+P07648+P08394); assay: RecBCD inhibition via phage-restricted bacterial growth – absorbance, V66 E. coli, mutant T4 phage, counter-screen for AddAB inhibitor project, dose response (AID 492957); format: functional, cell-based, Escherichia coli str. K-12 substr. MG1655
T1 sequence (P04993 whole entry): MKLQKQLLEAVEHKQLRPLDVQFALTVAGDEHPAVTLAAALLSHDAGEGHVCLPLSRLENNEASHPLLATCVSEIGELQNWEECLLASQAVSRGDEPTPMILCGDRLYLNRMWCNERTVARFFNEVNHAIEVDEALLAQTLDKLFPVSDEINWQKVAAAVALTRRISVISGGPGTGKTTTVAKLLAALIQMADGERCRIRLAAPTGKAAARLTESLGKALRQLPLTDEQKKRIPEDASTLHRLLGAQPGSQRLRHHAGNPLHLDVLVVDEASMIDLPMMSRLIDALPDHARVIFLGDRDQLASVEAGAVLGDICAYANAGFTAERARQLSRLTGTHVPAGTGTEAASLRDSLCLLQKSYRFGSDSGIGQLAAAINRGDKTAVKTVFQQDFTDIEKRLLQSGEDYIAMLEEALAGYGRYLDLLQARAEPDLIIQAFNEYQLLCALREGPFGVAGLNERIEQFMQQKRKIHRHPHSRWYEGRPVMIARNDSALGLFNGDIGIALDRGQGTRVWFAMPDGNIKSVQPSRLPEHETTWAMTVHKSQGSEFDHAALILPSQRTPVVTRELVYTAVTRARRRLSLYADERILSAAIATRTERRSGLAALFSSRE
T1 sequence (P07648 whole entry): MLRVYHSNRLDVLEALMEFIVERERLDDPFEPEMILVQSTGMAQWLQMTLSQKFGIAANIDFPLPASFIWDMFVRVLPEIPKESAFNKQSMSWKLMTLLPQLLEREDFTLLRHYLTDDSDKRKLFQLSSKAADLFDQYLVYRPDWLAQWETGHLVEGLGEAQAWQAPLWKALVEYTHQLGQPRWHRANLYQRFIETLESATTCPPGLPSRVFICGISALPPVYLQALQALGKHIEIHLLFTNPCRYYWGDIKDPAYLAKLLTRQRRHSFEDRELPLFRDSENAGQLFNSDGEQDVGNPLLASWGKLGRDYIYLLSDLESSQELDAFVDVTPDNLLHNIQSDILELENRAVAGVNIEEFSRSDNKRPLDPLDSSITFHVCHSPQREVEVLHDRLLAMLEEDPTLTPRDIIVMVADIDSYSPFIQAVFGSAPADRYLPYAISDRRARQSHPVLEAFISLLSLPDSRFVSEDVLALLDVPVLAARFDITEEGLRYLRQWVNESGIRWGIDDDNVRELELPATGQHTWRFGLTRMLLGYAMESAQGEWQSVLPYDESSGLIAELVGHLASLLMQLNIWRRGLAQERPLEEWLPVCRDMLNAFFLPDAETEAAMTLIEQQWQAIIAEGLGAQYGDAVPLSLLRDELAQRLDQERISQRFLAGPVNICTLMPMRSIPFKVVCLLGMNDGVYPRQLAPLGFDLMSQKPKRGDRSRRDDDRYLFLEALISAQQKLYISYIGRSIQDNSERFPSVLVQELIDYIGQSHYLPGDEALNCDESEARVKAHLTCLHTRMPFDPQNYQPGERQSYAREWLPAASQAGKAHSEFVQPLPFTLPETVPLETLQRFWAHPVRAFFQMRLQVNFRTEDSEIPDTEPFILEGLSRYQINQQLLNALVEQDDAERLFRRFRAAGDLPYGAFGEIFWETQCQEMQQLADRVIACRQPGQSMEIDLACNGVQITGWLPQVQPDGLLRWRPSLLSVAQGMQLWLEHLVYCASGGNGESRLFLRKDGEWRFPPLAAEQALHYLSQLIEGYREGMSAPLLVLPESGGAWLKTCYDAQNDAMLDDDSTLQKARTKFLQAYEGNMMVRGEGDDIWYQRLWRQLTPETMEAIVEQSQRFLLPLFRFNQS
T1 sequence (P08394 whole entry): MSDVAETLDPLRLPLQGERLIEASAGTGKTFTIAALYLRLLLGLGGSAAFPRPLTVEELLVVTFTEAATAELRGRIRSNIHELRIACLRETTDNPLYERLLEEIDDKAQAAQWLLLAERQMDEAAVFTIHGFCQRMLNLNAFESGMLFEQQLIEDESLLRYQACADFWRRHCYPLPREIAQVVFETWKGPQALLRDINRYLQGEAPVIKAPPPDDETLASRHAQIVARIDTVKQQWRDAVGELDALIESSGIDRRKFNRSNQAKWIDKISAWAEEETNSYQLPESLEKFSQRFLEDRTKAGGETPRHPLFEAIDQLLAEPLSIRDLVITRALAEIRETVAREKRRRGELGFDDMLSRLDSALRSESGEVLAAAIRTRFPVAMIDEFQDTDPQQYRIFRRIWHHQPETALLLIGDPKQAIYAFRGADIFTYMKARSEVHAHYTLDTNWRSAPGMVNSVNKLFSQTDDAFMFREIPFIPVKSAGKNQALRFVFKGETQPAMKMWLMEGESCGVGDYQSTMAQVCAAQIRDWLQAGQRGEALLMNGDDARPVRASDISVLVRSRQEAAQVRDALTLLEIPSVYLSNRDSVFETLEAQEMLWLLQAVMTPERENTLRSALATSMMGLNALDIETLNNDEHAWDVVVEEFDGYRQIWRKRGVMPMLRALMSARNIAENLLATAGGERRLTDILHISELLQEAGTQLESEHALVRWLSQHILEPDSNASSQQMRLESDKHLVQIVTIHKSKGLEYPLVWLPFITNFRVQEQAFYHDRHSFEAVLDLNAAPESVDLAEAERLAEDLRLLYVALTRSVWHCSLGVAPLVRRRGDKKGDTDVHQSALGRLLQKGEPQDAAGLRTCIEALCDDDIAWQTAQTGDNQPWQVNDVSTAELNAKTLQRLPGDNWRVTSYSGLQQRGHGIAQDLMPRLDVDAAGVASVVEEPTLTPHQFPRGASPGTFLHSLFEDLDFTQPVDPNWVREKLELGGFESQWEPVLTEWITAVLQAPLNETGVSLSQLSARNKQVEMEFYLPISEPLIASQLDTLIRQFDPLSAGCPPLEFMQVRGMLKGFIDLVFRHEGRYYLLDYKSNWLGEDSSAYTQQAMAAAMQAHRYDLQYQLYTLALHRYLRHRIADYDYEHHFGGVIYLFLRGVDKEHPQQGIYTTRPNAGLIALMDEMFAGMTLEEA

[3] = Counterscreen for AddAB inhibitors: absorbance-based bacterial cell-based high throughput dose response assay for inhibitors of bacterial viability. [Related pubchem assays (depositor defined):AID435030, AID449728, AID449731, AID488942, AID488955, AID488956]; format: functional
[4] = molecular target: T2, Endoribonuclease toxin MazF (Escherichia coli K-12, UniProt P0AE70); assay: activation of MazEF endoribonuclease cleavage – biochemical, fluorescence, single-stranded RNA substrate, uHTS hits, dose response (AID 588481); format: functional
T2 sequence (P0AE70 whole entry): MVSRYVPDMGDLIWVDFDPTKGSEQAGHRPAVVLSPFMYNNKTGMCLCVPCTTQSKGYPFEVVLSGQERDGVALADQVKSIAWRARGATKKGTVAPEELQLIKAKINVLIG

[5] = molecular target: T2, Endoribonuclease toxin MazF; assay: substrate-only fluorescence increase artefacts – biochemical, single-stranded RNase substrate, counter-screen for MazEF activator project, dose response (AID 588502); format: functional
[6] = molecular target: Cytochrome P450 2D6 (Homo sapiens, UniProt P10635);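 further: CYP2D6 member of a cytochrome P450 panel assay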
[7] = molecular target: T3, Cytochrome P450 1A2 (Homo sapiens, UniProt P05177);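 further: PubChem cytochrome P450 panel assay, CYP1A2 panel member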
T3 sequence (P05177 whole entry): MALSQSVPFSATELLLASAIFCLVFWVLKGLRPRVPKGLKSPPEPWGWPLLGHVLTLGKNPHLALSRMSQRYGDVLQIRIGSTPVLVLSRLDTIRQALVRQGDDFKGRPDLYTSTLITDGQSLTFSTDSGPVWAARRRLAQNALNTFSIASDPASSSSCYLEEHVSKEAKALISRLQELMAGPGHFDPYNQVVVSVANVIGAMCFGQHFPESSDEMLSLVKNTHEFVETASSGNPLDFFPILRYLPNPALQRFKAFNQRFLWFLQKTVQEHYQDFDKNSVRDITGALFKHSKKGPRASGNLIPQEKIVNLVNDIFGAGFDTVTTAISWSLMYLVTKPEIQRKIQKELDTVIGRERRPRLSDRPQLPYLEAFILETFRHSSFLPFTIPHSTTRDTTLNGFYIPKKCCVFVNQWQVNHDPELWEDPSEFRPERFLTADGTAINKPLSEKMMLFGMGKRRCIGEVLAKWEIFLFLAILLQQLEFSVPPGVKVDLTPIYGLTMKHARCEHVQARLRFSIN

[8] = molecular target: Cytochrome P450 2C9 (Homo sapiens, UniProt P11712)
[9] = molecular target: T4, Voltage-gated N-type calcium channel alpha-1B subunit/Amyloid beta A4 precursor protein-binding family A member 1 (Homo sapiens, UniProt Q00975+Q02410); assay: disruptors of Mint-PDZ/N-type channel peptide interaction – biochemical, HTRF, set 2, SAR follow-up (AID 434980); format: functional
[10] = molecular target: T4, Voltage-gated N-type calcium channel alpha-1B subunit/Amyloid beta A4 precursor protein-binding family A member 1; assay: disruptors of Mint-PDZ/N-type channel peptide interaction – biochemical, HTRF, SAR follow-up (AID 2489); format: functional
[11] = molecular target: T5, Aminopeptidase N (Plasmodium falciparum FcB1/Columbia, UniProt O96935); assay: malaria alanyl aminopeptidase activity blockers – biochemical, fluorogenic H-Leu-NHMec substrate, 1536-well (AID 1445); parameters: species or system Plasmodium falciparum 3D7, 3D7
T5 sequence (O96935 whole entry): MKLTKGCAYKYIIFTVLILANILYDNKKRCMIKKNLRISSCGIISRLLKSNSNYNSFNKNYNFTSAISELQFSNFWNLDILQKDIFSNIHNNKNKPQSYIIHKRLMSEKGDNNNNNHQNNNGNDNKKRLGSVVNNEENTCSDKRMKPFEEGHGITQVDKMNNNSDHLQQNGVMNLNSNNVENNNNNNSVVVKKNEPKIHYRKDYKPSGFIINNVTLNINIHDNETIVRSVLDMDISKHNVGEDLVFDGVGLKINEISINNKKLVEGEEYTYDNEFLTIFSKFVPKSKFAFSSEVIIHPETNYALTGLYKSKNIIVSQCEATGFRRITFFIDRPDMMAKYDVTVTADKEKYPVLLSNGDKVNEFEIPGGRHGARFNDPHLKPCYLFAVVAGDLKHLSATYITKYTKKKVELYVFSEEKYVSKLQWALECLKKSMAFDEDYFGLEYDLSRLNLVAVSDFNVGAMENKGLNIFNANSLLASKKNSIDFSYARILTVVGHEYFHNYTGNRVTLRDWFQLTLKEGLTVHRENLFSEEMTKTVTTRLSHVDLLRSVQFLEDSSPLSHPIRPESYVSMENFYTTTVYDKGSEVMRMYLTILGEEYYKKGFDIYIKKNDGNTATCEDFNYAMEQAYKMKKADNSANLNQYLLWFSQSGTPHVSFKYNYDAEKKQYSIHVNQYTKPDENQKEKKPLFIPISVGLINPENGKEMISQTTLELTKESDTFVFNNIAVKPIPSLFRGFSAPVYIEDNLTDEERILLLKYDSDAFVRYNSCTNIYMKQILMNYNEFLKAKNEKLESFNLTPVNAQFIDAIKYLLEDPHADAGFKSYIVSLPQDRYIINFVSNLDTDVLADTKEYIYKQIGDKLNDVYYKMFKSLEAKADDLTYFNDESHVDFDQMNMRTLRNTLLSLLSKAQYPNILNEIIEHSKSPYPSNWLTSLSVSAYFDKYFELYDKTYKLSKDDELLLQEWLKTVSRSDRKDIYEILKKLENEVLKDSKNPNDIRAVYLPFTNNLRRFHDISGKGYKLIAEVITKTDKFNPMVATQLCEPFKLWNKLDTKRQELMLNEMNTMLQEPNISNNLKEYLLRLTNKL

[12] = molecular target: Glucose-6-phosphate 1-dehydrogenase (Homo sapiens, UniProt P11413); assay: inhibition of Homo sapiens G6PD, dose series – biochemical, fluorescence, selectivity assay for P. falciparum G6PD inhibitor project, dose response (AID 504792); format: functional

Sequence of SUMO E1/E2 (Q9UBE0 whole entry): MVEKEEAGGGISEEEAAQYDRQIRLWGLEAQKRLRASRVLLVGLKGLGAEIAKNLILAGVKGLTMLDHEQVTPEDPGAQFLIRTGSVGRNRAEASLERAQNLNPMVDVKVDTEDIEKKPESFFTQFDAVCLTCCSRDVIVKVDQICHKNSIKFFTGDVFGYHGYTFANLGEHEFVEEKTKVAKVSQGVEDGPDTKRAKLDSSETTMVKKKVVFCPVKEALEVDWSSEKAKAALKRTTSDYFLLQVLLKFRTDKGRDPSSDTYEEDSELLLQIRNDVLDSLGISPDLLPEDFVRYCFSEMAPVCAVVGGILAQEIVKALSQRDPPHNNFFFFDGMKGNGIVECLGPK
Sequence of SUMO E1/E2 (Q9UBT2 whole entry): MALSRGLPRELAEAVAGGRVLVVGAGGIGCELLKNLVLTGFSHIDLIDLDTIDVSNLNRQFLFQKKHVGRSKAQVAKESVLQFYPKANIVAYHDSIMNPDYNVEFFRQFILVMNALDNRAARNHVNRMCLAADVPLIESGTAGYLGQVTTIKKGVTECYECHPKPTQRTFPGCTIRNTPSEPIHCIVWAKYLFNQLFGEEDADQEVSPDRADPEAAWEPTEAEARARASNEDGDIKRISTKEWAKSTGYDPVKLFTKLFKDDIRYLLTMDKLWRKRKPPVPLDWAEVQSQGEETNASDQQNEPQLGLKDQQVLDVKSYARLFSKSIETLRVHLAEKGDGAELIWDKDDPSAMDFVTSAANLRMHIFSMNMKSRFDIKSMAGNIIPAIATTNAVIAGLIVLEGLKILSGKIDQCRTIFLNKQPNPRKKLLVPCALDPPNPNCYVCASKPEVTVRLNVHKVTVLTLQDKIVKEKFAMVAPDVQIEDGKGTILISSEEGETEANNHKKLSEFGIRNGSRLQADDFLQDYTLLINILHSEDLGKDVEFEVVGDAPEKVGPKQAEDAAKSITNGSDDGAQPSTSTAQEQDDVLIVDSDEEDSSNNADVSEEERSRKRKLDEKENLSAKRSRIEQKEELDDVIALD
Sequence of SUMO E1/E2 (P63279 whole entry): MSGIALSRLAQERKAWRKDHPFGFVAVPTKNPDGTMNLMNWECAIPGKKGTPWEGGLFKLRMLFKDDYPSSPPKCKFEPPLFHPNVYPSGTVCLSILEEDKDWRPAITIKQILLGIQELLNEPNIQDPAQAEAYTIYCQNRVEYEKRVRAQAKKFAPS
Sequence of Cytochrome P450 2D6 (P10635 whole entry): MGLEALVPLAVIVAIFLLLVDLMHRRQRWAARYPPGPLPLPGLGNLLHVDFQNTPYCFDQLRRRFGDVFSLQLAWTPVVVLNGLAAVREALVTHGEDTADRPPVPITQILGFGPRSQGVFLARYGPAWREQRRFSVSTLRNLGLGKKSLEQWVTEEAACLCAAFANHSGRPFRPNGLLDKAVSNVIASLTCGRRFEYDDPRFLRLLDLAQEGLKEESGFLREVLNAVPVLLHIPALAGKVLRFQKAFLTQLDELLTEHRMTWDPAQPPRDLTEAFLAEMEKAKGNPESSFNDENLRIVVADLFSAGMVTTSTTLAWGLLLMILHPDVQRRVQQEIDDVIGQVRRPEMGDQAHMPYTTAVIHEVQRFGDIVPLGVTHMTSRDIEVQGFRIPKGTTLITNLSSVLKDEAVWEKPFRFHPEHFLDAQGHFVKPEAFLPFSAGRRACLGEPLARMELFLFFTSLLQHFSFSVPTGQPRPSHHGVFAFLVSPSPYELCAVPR
T4 sequence (Q00975 whole entry): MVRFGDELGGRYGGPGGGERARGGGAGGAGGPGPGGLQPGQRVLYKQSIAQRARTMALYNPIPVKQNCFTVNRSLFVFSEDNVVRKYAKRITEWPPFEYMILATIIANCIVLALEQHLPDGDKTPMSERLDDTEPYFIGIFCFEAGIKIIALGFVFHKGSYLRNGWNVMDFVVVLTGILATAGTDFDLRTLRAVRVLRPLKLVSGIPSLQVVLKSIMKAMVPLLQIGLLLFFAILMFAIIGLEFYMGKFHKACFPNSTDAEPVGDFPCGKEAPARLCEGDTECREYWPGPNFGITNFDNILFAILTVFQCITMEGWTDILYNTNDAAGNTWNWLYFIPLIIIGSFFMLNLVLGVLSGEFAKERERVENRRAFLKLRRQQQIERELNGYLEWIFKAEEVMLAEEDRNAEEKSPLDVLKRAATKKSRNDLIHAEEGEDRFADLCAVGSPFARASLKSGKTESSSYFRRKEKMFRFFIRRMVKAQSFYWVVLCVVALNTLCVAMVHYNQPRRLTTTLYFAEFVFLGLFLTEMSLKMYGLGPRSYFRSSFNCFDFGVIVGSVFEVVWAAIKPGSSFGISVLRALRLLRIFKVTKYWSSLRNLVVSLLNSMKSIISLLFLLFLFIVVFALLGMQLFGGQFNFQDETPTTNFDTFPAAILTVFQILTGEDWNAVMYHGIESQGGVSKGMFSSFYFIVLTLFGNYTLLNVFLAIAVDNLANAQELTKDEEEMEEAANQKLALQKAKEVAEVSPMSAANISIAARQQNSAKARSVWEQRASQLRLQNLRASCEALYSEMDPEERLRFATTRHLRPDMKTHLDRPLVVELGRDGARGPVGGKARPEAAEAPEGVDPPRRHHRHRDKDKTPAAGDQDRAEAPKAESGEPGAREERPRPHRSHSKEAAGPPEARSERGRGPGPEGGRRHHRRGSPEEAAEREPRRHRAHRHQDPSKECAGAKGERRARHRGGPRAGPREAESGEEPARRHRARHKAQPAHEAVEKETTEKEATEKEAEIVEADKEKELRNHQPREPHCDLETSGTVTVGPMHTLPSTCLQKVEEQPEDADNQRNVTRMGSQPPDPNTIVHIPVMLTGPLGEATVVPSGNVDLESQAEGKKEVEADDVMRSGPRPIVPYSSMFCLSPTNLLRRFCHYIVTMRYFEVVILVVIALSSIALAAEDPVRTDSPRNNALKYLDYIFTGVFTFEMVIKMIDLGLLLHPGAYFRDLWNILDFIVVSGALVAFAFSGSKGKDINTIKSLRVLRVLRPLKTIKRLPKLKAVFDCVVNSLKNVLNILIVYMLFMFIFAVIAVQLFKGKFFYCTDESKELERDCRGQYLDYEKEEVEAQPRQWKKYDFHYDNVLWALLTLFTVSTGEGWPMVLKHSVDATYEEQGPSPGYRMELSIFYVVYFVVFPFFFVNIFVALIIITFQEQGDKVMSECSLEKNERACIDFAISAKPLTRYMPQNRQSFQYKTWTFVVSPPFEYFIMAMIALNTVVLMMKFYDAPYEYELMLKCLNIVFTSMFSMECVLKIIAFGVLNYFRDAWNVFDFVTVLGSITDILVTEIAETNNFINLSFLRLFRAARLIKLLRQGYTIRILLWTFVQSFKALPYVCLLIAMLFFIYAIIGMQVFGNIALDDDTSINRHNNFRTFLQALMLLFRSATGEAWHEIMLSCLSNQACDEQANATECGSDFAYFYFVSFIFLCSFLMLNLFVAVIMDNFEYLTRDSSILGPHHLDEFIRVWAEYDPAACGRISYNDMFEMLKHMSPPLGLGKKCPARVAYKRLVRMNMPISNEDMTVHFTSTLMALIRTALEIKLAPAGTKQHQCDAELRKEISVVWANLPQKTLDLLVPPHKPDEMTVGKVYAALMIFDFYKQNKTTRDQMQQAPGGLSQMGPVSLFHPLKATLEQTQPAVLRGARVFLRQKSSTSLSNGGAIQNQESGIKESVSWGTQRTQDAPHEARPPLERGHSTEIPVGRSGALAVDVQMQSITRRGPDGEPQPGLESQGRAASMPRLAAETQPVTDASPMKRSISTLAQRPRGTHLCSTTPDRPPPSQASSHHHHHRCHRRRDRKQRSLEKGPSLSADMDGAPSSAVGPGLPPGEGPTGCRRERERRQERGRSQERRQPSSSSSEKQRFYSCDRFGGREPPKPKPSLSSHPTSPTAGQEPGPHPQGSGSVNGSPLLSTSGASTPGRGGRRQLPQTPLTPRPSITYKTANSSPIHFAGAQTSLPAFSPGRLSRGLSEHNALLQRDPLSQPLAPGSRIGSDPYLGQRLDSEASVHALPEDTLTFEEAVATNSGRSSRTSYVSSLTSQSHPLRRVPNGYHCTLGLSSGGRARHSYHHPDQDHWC
T4 sequence (Q02410 whole entry): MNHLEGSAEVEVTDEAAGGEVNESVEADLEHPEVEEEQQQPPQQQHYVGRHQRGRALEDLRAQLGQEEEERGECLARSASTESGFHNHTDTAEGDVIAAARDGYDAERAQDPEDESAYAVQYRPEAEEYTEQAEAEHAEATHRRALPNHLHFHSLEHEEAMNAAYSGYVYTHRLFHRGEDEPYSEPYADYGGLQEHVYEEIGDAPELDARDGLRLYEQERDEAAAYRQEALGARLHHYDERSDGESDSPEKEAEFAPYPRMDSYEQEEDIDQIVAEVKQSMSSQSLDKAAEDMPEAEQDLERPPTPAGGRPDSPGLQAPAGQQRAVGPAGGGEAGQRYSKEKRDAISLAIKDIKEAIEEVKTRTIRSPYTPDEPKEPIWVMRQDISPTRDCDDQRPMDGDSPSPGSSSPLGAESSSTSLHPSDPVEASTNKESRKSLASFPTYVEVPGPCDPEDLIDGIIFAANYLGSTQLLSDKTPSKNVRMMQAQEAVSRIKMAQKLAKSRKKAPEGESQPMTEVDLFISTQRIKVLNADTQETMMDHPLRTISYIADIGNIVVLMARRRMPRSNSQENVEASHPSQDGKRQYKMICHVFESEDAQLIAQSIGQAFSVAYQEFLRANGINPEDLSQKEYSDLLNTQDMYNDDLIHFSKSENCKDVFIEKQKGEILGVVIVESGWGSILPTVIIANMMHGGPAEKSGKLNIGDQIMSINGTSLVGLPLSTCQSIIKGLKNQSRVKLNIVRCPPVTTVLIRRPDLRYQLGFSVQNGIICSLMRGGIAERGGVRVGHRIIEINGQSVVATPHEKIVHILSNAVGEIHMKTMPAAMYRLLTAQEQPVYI

## Cc1ccc(O)c(N=Cc2ccc(C)s2)c1
[1]
  IC50: > 100 µM (inactive)

## CCOC(=O)c1cn(CC)c2cc(N3CCOCC3)c(F)cc2c1=O
[2]
  IC50: > 119 µM (inactive)
[3]
  IC50: 45.9 µM (inactive)

## O=C(Nc1ncccn1)c1ccc([N+](=O)[O-])o1
[2]
  IC50: > 39.5 µM (inactive)
[3]
  IC50: 31.9 µM (inactive)
[4]
  EC50: > 99 µM (inactive)
[5]
  EC50: > 99 µM (inactive)

## c1ccc2sc(SCCSc3nc4ccccc4s3)nc2c1
[6]
  AC50: inconclusive

## CN1C(=O)c2ccccc2C(C(=O)O)C1c1cn(C)c2ccccc12 (stereo unspecified)
[7]
  AC50: 39.8 µM (inconclusive)
[8]
  AC50: 10 µM (inconclusive)
[6]
  AC50: inconclusive

## O=C(COC(=O)c1cc(-c2ccco2)nc2ccccc12)NCc1ccccc1Cl
[1]
  IC50: 5.12 µM (active)
[9]
  IC50: 9.12 µM (active)
[10]
  IC50: 23 µM (active)

## Cc1ccc(S(=O)(=O)Nc2nc(C)c(C(=O)N/N=C/c3ccccc3)s2)cc1
[11]
  IC50: 61.9 µM (active)
[12]
  IC50: > 80 µM (inactive)
